Assay results as given in patent publication US20230000813A1, “COMPOUND FOR THE TREATMENT OF BOVINE OR SWINE RESPIRATORY DISEASE” (Intervet Inc., priority 2016, published 2023).
Values after ≈ are worked out from the molar mass of the structure shown.

Columns and labels:
Assay in all cases: MIC, broth-microdilution (CLSI VET01-A4)
Type in all cases: cell-based
[1] = system: Pasteurella multocida PM 10775 (080130003051, BRD field isolate); conditions: Pasteurella multocida PM 10775
Method: (§1) The Minimum inhibitory concentrations (MIC) of compounds according to the invention for a number of veterinary bacterial pathogens were determined by the broth-microdilution method according to CLSI document VET01-A4.
(§2) Microdilution trays containing a doubling dilution series of the test compound were used for the tests. The MIC results were interpreted according to the CLSI documents VET01-S3. The lowest concentration of compound at which no visible growth (i.e. no turbidity) detected by the unaided eye was recorded as the MIC.
(§3) The Minimum inhibitory concentrations (MIC) of compounds according to the invention were determined by the broth-microdilution method according to CLSI document VET01-A4.
(§4) Microdilution trays containing a doubling dilution series of the test compound were used for the tests.
(§5) The MIC results were interpreted according to the CLSI documents VET01-S3. The lowest concentration of compound at which no visible growth (i.e. no turbidity) detected by the unaided eye was recorded as the MIC.

[2] = system: Mannheimia haemolytica MH 12587 (1071, BRD field isolate, macrolide-resistance: erm+, E+); conditions: Mannheimia haemolytica MH 12587, macrolide-resistant
Method: as §1, §2, §3, §4, §5

[3] = system: Mannheimia haemolytica MH 6374 (ATCC 33396, reference strain); conditions: Mannheimia haemolytica MH 6374; for MIC: read-out: MIC MH 6374
Method: as §1, §2, §3, §4, §5

[4] = system: Pasteurella multocida PM 12080 (IV102277-0093, BRD field isolate); conditions: Pasteurella multocida PM 12080; for MIC: read-out: MIC PM 12080
Method: as §1, §2, §3, §4, §5

[5] = system: Pasteurella multocida PM 6391 (ATCC 43137, reference strain); conditions: Pasteurella multocida PM 6391; for MIC: read-out: MIC PM 6391
Method: as §1, §2, §3, §4, §5

[6] = system: Pasteurella multocida PM 6267 (P 2225 (L386), reference strain, mouse infection strain); conditions: Pasteurella multocida PM 6267
Method: as §1, §2, §3, §4, §5

[7] = system: Mannheimia haemolytica MH 6357 (M7/2, reference strain, cattle infection strain); conditions: Mannheimia haemolytica MH 6357; for MIC: read-out: MIC MH 6357
Method: as §1, §2, §3, §4, §5

[8] = system: Mannheimia haemolytica MH 13065 (XB0446-6003.9, BRD field isolate)
Method: as §1, §2

[9] = system: Mannheimia haemolytica MH 13093 (XB0472-6014.1, BRD field isolate)
Method: as §1, §2

[10] = system: Mannheimia haemolytica MH 10720 (154, BRD field isolate); conditions: Mannheimia haemolytica MH 10720
Method: as §1, §2, §3, §4, §5

SMILES	MIC PM 10775 [1]	MIC MH 12587 [2]	MIC [3]	MIC PM 12080 [4]	MIC PM 6391 [5]	MIC PM 6267 [6]	MIC [7]	MIC [8]	MIC [9]	MIC [4]	MIC [5]	MIC MH 6374 [3]	MIC MH 13065 [8]	MIC ([6]; read-out: MIC PM 6267)	MIC MH 6357 [7]	MIC MH 13093 [9]	MIC MH 10720 [10]
C[C@@H](O)[C@H](NC(=O)c1ccc(C#Cc2ccc(CNC3CC3)s2)cc1)C(=O)NO [Compound 398]	<=0.1 μM	0.4 µM (≈ 0.165 µg/mL)	0.8 µM (≈ 0.331 µg/mL)	<=0.1 μM	<=0.1 μM	<=0.1 μM	0.4 µM (≈ 0.165 µg/mL)	0.2 µM (≈ 0.0827 µg/mL)	0.2 µM (≈ 0.0827 µg/mL)								
C[C@@H](O)[C@H](NC(=O)c1ccc(C#Cc2ccc(CNCC3CCCO3)s2)cc1)C(=O)NO (stereo partly drawn) [C. 412]	<=0.1 μM	1.6 µM (≈ 0.732 µg/mL)	0.8 µM (≈ 0.366 µg/mL)			<=0.1 μM	0.8 µM (≈ 0.366 µg/mL)	0.8 µM (≈ 0.366 µg/mL)	1.6 µM (≈ 0.732 µg/mL)	0.4 µM (≈ 0.183 µg/mL)	0.2 µM (≈ 0.0915 µg/mL)						
Cc1ccc(CNCc2ccc(C#Cc3ccc(C(=O)N[C@H](C(=O)NO)[C@@H](C)O)cc3)s2)cc1 [Compound 411]	<=0.1 μM	0.4 µM (≈ 0.191 µg/mL)		<=0.1 μM	<=0.1 μM	<=0.1 μM	0.2 µM (≈ 0.0955 µg/mL)		0.2 µM (≈ 0.0955 µg/mL)			<=0.1 μM	<=0.1 μM				
CCCNCc1ccc(C#Cc2ccc(C(=O)N[C@H](C(=O)NO)[C@@H](C)O)cc2)s1 [Compound 404]	<=0.1 μM	1.6 µM (≈ 0.665 µg/mL)	1.6 µM (≈ 0.665 µg/mL)				1.6 µM (≈ 0.665 µg/mL)	0.8 µM (≈ 0.332 µg/mL)	1.6 µM (≈ 0.665 µg/mL)	0.8 µM (≈ 0.332 µg/mL)	0.4 µM (≈ 0.166 µg/mL)			0.4 µM (≈ 0.166 µg/mL)			
C[C@@H](O)[C@H](NC(=O)c1ccc(C#Cc2ccc(CNCc3cccs3)s2)cc1)C(=O)NO [Compound 410]	<=0.1 μM	0.2 µM (≈ 0.0939 µg/mL)		<=0.1 μM	<=0.1 μM	<=0.1 μM						<=0.1 μM	<=0.1 μM		<=0.1 μM	<=0.1 μM	
C[C@@H](O)[C@H](NC(=O)c1ccc(C#Cc2ccc(CNCc3ccccn3)s2)cc1)C(=O)NO [Compound 408]	<=0.1 μM	0.8 µM (≈ 0.372 µg/mL)	0.4 µM (≈ 0.186 µg/mL)	<=0.1 μM	<=0.1 μM	<=0.1 μM	0.4 µM (≈ 0.186 µg/mL)	0.4 µM (≈ 0.186 µg/mL)	0.4 µM (≈ 0.186 µg/mL)								
C[C@@H](O)[C@H](NC(=O)c1ccc(C#Cc2ccc(CNC3CC3)nc2)cc1)C(=O)NO [C. 413]	<=0.1 μM	0.8 µM (≈ 0.327 µg/mL)	0.8 µM (≈ 0.327 µg/mL)	<=0.1 μM	<=0.1 μM	<=0.1 μM	0.4 µM (≈ 0.163 µg/mL)	0.4 µM (≈ 0.163 µg/mL)	0.4 µM (≈ 0.163 µg/mL)								
C#CCNCc1ccc(C#Cc2ccc(C(=O)NC(C(=O)NO)C(C)(C)N)cc2)cc1 (racemic) [Compound 626]	<=0.1 μM	0.8 µM (≈ 0.335 µg/mL)	0.4 µM (≈ 0.167 µg/mL)	<=0.1 μM		<=0.1 μM	0.8 µM (≈ 0.335 µg/mL)	0.4 µM (≈ 0.167 µg/mL)	0.8 µM (≈ 0.335 µg/mL)								<=0.1 μM
C[C@@H](O)[C@H](NC(=O)c1ccc(C#Cc2ccc(CNCC#N)s2)cc1)C(=O)NO [Compound 406]	<=0.1 μM	1.6 µM (≈ 0.66 µg/mL)	1.6 µM (≈ 0.66 µg/mL)			<=0.1 μM	1.6 µM (≈ 0.66 µg/mL)	0.8 µM (≈ 0.33 µg/mL)	1.6 µM (≈ 0.66 µg/mL)	0.4 µM (≈ 0.165 µg/mL)	0.2 µM (≈ 0.0825 µg/mL)						
